Results from the supplement of paper PMC10307832.

Columns and labels:
Assay in all cases: relative viability (nuclei count vs DMSO), 5 days (fraction); higher = more cells survive
[1] = compound: O=c1[nH]cc(F)c(=O)[nH]1 [5-Fluorouracil] + CC(=O)c1c(C)c2cnc(Nc3ccc(N4CCNCC4)cn3)nc2n(C2CCCC2)c1=O [Palbociclib] (partner 0.5 µM)
How it was run: (§1)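 Relative viability equals treated-well nuclei counts divided by vehicle-well nuclei counts. Counts came from 4× images of lung cancer cell lines grown in 1536-well plates for 5 days after pin-tool dosing on the day after seeding. Dosing used one drug alone or a fixed anchor-drug dose plus five library-drug doses (not always all listed) in √10 steps, and values are medians of duplicate plates.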

[2] = compound: O=c1[nH]cc(F)c(=O)[nH]1 [5-Fluorouracil] + Nc1ncn([C@H]2C[C@H](O)[C@@H](CO)O2)c(=O)n1 [Decitabine] (partner 2 µM)
How it was run: as §1

[3] = compound: O=c1[nH]cc(F)c(=O)[nH]1 [5-Fluorouracil] + Cc1nc(NC(=O)N2CCC[C@H]2C(N)=O)sc1-c1ccnc(C(C)(C)C(F)(F)F)c1 [Alpelisib] (partner 2 µM)
How it was run: as §1

[4] = compound: CN[C@@H]1C[C@H]2O[C@@](C)([C@@H]1OC)n1c3ccccc3c3c4c(c5c6ccccc6n2c5c31)C(=O)NC4 [Staurosporine] + Cc1cc(Nc2cc(N3CCN(C)CC3)nc(Sc3ccc(NC(=O)C4CC4)cc3)n2)n[nH]1 [Tozasertib] (partner 0.1 µM)
How it was run: as §1

| Cell Line | relative viability ([1]; first compound 0.02 µM) | relative viability ([1]; first compound 0.2 µM) | relative viability ([1]; first compound 0.6325 µM) | relative viability ([1]; first compound 2 µM) | relative viability ([2]; first compound 0.02 µM) | relative viability ([2]; first compound 0.2 µM) | relative viability ([2]; first compound 0.6325 µM) | relative viability ([2]; first compound 2 µM) | relative viability ([3]; first compound 0.02 µM) | relative viability ([3]; first compound 0.2 µM) | relative viability ([3]; first compound 0.6325 µM) | relative viability ([3]; first compound 2 µM) | relative viability ([4]; first compound 0.005 µM) | relative viability ([4]; first compound 0.01581 µM) | relative viability ([4]; first compound 0.05 µM) | relative viability ([4]; first compound 0.1581 µM) | relative viability ([4]; first compound 0.5 µM) |
| --- | --- | --- | --- | --- | --- | --- | --- | --- | --- | --- | --- | --- | --- | --- | --- | --- | --- |
| NCI-H1395 | 0.538 | 0.692 | 0.641 | 0.609 | 0.802 | 0.781 | 0.771 | 0.736 | 1.1 | 1.02 | 1.14 | 0.844 | 0.705 | 0.614 | 0.37 | 0.331 | 0.265 |
| NCI-H647 | 0.343 | 0.516 | 0.308 | 0.358 | 0.367 | 0.383 | 0.39 | 0.391 | 0.897 | 0.915 | 1.06 | 0.767 | 0.201 | 0.157 | 0.0667 | 0.0489 | 0.061 |
| NCI-H520 | 0.177 | 0.271 | 0.218 | 0.167 | 0.505 | 0.556 | 0.479 | 0.552 | 0.537 | 0.975 | 0.717 | 0.383 | 0.57 | 0.473 | 0.423 | 0.366 | 0.303 |
